In patent publication US20100041597A1, “PEPTIDES TARGETED TO PROTEIN KINASE C ISOFORMS AND USES THEREOF” (priority 2005, published 2010):

Tests used:
[1] = In vitro toxicity test (fluorimetric DNA assay, Hoechst); format: cell-based, human; settings: human, IMR-32 neuroblastoma cells, read-out: % survival; for viability at 24 h, 2500 µg/mL / viability at 48 h, 2500 µg/mL / viability at 72 h, 2500 µg/mL: 2.5 mg/ml; for viability at 24 h, 2500 µg/mL / viability at 48 h, 2500 µg/mL / viability at 72 h, 2500 µg/mL / viability at 24 h, 10000 µg/mL / viability at 48 h, 10000 µg/mL / viability at 72 h, 10000 µg/mL: with pinocytic endocytosis reagent; for viability at 24 h, 10000 µg/mL / viability at 48 h, 10000 µg/mL / viability at 72 h, 10000 µg/mL: 10 mg/ml
Method: (§1) In vitro cytotoxicity testing of the peptides PRE 3, PRE 4 and PRE 5 (see Table 3) was conducted following the general protocol outlined below (modified from “Fluorimetric DNA assay for cell growth estimation” Rao J, Otto W., Analytical Biochem. 207:186-192, 1992).
(§2) The assay was performed in 96 well plates, with 3,000 IMR-32 neuroblastoma cells seeded per well and 8 replicas were performed per treatment. The cells were pre-treated with either plain medium and a pinocytic endocytosis reagent (Molecular Probes) or medium containing the PRE under evaluation and the pinocytic endocytosis reagent. The cells were allowed to grow under conventional conditions for 3 days. The DNA content of each well was assessed at 24, 48 and 72 hours using Hoechst reagent according to standard procedures. The fluorescence intensity per well was measured using the plate reader “CytoFluor 2350” from Millipore. Excitation was 360 nm and emission was 460 nm. The number of cells is directly correlated to the DNA content.
(§3) The results are shown in Tables 11-13 as the average relative fluorescence intensity measured for the 8 replica wells, as well as the percentage of survival as compared with matching untreated controls.

[2] = system: IMR-32 neuroblastoma cells; experiment: as above; format: cell-based, human
Method: as §1, §2, §3

[3] = system: PKC-βII; experiment: Competitive binding assay using cell extracts (Western blot); set-up: species or system human; key: —: no detectable affinity; Low to very low affinity at 10X or 20X or both PRE concentrations in at least one cell line in the cell extract assay; Low affinity in purified isoform assay.; Moderate affinity at 10X or 20X or both PRE concentrations in at least one cell line in the cell extract assay.; High affinity at 10X or 20X or both PRE concentrations in at least one cell line in the cell extract assay; High affinity in purified isoform assay; settings: Cell extract; PRE at 10X, 20X antibody concentration; Table 20
Method: (§4) Binding efficiency and specificity of the peptides PRE 2, 3, 4, 5, 6, 7, 8, 9, 10, 11, 12 and 13 (see Table 3) was also tested using cytoplasmic extracts from different cell lines expressing appropriate PKC isoforms as described for Example 1. Briefly, the protein cytoplasmic extracts were separated by electrophoresis and transferred onto nitrocellulose membranes by standard Western blotting procedures. The bands on the Western blots were detected with matching primary antibodies and alkaline phosphatase conjugated secondary antibody. The bands were then scanned and the relative density measurements obtained.
(§5) This procedure to assess the binding characteristics of the PREs is based on competition binding of the PRE with the primary anti-isoform PKC specific antibodies. The lower the measured band density, the greater the binding of the PRE to the PKC isoform. The PREs were added at 10 and 20 times (10×, 20×) the primary antibody concentration, according to classical competition between antigenic peptide and primary antibody. The following cell lines (obtained from the ATCC) were used: H661—NCI human lung carcinoma NSCLC; MDAMB231—human highly invasive breast cancer cell line from pleural effusion; LS180—human colon adenocarcinoma; LnCAP—human prostate adenocarcinoma; CCD16Lu—human lung fibroblasts; Du145—human prostate carcinoma brain metastasis, and T24—human bladder carcinoma.
(§6) In these cases, the 20× band density figures relative to control and 10× values were reliable.

[4] = biological target: PKC-βI (Homo sapiens, UniProt P05771); experiment: as above; set-up: cytoplasmic extracts from different cell lines expressing appropriate PKC isoforms; endogenous in cells; host or cells: H661, MDAMB231, LS180, T24; key to Affinity for PKC isoform βI: —: no detectable affinity; Low to very low affinity at 10X or 20X or both PRE concentrations in at least one cell line in the cell extract assay; Low affinity in purified isoform assay.; Moderate affinity at 10X or 20X or both PRE concentrations in at least one cell line in the cell extract assay.; High affinity at 10X or 20X or both PRE concentrations in at least one cell line in the cell extract assay; High affinity in purified isoform assay; settings: for Affinity for PKC isoform βI: Cell extract, PRE at 10X, 20X antibody concentration, Table 20
Chain of PKC-βI (P05771 2-671): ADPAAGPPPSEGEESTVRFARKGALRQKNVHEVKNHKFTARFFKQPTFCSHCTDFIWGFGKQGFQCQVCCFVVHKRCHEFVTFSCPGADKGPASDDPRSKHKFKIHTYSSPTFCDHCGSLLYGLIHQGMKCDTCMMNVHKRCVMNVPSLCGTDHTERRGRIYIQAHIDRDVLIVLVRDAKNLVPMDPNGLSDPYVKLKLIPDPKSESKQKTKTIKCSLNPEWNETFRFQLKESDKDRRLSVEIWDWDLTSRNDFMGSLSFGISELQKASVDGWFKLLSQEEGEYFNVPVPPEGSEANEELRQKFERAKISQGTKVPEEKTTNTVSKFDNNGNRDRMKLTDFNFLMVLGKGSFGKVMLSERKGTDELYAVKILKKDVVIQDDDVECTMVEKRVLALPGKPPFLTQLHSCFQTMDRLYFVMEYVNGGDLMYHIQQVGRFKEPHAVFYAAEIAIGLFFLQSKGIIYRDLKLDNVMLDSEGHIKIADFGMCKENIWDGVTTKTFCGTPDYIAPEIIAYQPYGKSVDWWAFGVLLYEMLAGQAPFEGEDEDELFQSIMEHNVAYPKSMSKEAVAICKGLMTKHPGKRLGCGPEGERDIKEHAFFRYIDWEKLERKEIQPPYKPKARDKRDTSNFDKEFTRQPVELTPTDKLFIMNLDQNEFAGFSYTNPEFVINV
Method: as §4, §5, §6

[5] = biological target: T1, PKC-ζ (Homo sapiens, UniProt Q05513); experiment: as above; set-up: cytoplasmic extracts from different cell lines expressing appropriate PKC isoforms; endogenous in cells; host or cells: MDAMB231, LnCAP, Du145, H661, CCD16Lu (human, from ATCC); key: —: no detectable affinity; Low to very low affinity at 10X or 20X or both PRE concentrations in at least one cell line in the cell extract assay; Low affinity in purified isoform assay.; Moderate affinity at 10X or 20X or both PRE concentrations in at least one cell line in the cell extract assay.; High affinity at 10X or 20X or both PRE concentrations in at least one cell line in the cell extract assay; High affinity in purified isoform assay; settings: Cell extract; PRE at 10X, 20X antibody concentration; Table 20
T1 sequence (Q05513 1-592): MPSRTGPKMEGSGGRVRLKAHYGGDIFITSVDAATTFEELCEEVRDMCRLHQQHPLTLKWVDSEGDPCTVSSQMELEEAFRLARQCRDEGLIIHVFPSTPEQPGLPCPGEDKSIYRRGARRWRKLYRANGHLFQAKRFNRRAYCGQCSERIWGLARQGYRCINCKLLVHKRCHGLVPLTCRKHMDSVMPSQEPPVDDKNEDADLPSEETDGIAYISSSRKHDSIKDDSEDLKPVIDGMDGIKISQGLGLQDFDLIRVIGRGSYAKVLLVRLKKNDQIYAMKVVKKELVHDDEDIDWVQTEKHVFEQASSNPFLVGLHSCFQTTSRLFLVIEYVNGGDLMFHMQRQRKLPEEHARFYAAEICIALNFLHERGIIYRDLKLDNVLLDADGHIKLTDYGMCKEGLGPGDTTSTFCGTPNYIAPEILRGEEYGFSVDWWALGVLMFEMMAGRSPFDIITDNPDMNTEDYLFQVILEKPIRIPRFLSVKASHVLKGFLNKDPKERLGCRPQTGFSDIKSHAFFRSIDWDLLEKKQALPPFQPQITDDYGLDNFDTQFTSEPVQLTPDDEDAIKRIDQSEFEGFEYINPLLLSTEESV
Method: as §4, §5, §6

[6] = 2.5 mg/ml, 24 h, with pinocytic endocytosis reagent
[7] = 2.5 mg/ml, 48 h, with pinocytic endocytosis reagent
[8] = 2.5 mg/ml, 72 h, with pinocytic endocytosis reagent
[9] = 10 mg/ml, 24 h, with pinocytic endocytosis reagent
[10] = 10 mg/ml, 48 h, with pinocytic endocytosis reagent
[11] = 10 mg/ml, 72 h, with pinocytic endocytosis reagent

## Ac-AKGIQEVKGGDAQNLIGISI-NH2 [PRE 3]
[1]; 24 h
  viability at 24 h, 2500 µg/mL: 127%
  viability at 24 h, 10000 µg/mL: 120%
[1]; 48 h
  viability at 48 h, 2500 µg/mL: 150%
  viability at 48 h, 10000 µg/mL: 129%
[1]; 72 h
  viability at 72 h, 2500 µg/mL: 123%
  viability at 72 h, 10000 µg/mL: 117%
[2]; [6]
  AFI (Average fluorescence intensity): 193
[2]; [7]
  AFI (Average fluorescence intensity): 389
[2]; [8]
  AFI (Average fluorescence intensity): 871
[2]; [9]
  AFI (Average fluorescence intensity): 182
[2]; [10]
  AFI (Average fluorescence intensity): 334
[2]; [11]
  AFI (Average fluorescence intensity): 830
[3]
  Affinity for PKC isoform βII: L
[4]
  Affinity for PKC isoform βI: L
[5]
  Affinity for PKC isoform ζ: —

## Ac-AKGIQEVKGGKDAQNLIGISI-NH2 [PRE 5]
[1]; 62.5 μg/ml, 24 h, Table 13
  viability at 24 h, 62.5 µg/mL: 113%
[1]; 62.5 μg/ml, 48 h, Table 13
  viability at 48 h, 62.5 µg/mL: 117%
[1]; 62.5 μg/ml, 72 h, Table 13
  viability at 72 h, 62.5 µg/mL: 100%
[1]; 125 μg/ml, 24 h, Table 13
  viability at 24 h, 125 µg/mL: 94%
[1]; 125 μg/ml, 48 h, Table 13
  viability at 48 h, 125 µg/mL: 107%
[1]; 125 μg/ml, 72 h, Table 13
  viability at 72 h, 125 µg/mL: 93%
[1]; 250 μg/ml, 24 h, Table 13
  viability at 24 h, 250 µg/mL: 88%
[1]; 250 μg/ml, 48 h, Table 13
  viability at 48 h, 250 µg/mL: 97%
[1]; 250 μg/ml, 72 h, Table 13
  viability at 72 h, 250 µg/mL: 89%
[1]; 500 μg/ml, 24 h, Table 13
  viability at 24 h, 500 µg/mL: 78%
[1]; 500 μg/ml, 48 h, Table 13
  viability at 48 h, 500 µg/mL: 96%
[1]; 500 μg/ml, 72 h, Table 13
  viability at 72 h, 500 µg/mL: 84%
[2]; 62.5 μg/ml, 24 h, 3000 cells/100 μl/well, Table 13
  AFI (Average fluorescence intensity): 717
[2]; 62.5 μg/ml, 48 h, Table 13
  AFI (Average fluorescence intensity): 1084
[2]; 62.5 μg/ml, 72 h, Table 13
  AFI (Average fluorescence intensity): 1290
[2]; 125 μg/ml, 24 h, Table 13
  AFI (Average fluorescence intensity): 593
[2]; 125 μg/ml, 48 h, Table 13
  AFI (Average fluorescence intensity): 991
[2]; 125 μg/ml, 72 h, Table 13
  AFI (Average fluorescence intensity): 1200
[2]; 250 μg/ml, 24 h, Table 13
  AFI (Average fluorescence intensity): 557
[2]; 250 μg/ml, 48 h, Table 13
  AFI (Average fluorescence intensity): 899
[2]; 250 μg/ml, 72 h, Table 13
  AFI (Average fluorescence intensity): 1150
[2]; 500 μg/ml, 24 h, Table 13
  AFI (Average fluorescence intensity): 492
[2]; 500 μg/ml, 48 h, Table 13
  AFI (Average fluorescence intensity): 891
[2]; 500 μg/ml, 72 h, Table 13
  AFI (Average fluorescence intensity): 1082
[3]
  Affinity for PKC isoform βII: H
[4]
  Affinity for PKC isoform βI: H
[5]
  Affinity for PKC isoform ζ: L/H

## Ac-ISIGILNQADK-NH2 [PRE 10]
[3]
  Affinity for PKC isoform βII: —
[4]
  Affinity for PKC isoform βI: M
[5]
  Affinity for PKC isoform ζ: M/L

## Ac-ISIGILQNADK-NH2 [PRE 7]
[4]
  Affinity for PKC isoform βI: —
[5]
  Affinity for PKC isoform ζ: —

## Ac-KDANQLIGISI-NH2 [PRE 6]
[4]
  Affinity for PKC isoform βI: H
[5]
  Affinity for PKC isoform ζ: —

## Ac-KDAQNLI-NH2 [PRE 12]
[3]
  Affinity for PKC isoform βII: L
[4]
  Affinity for PKC isoform βI: —
[5]
  Affinity for PKC isoform ζ: M/H

## Ac-KDAQNLIGISI-NH2 [PRE 4, Ac-KDAQNLIGISI-NH2]
[1]; 24 h
  viability at 24 h, 2500 µg/mL: 106%
  viability at 24 h, 10000 µg/mL: 103%
[1]; 48 h
  viability at 48 h, 2500 µg/mL: 99%
  viability at 48 h, 10000 µg/mL: 101%
[1]; 72 h
  viability at 72 h, 2500 µg/mL: 110%
  viability at 72 h, 10000 µg/mL: 115%
[2]; [6]
  AFI (Average fluorescence intensity): 179
[2]; [7]
  AFI (Average fluorescence intensity): 240
[2]; [8]
  AFI (Average fluorescence intensity): 777
[2]; [9]
  AFI (Average fluorescence intensity): 173
[2]; [10]
  AFI (Average fluorescence intensity): 247
[2]; [11]
  AFI (Average fluorescence intensity): 809
[3]
  Affinity for PKC isoform βII: L
[4]
  Affinity for PKC isoform βI: H
[4]; cell extracts
  affinity for PKC-βI: good affinity for PKC-βI
[5]
  Affinity for PKC isoform ζ: —

## Ac-RDAQNLI-NH2 [PRE 13]
[4]
  Affinity for PKC isoform βI: —
[5]
  Affinity for PKC isoform ζ: —

## Ac-RDAQNLIGISI-NH2 [PRE 11]
[4]
  Affinity for PKC isoform βI: H
[5]
  Affinity for PKC isoform ζ: —

## Ac-isigilgnadk-NH2 [PRE 9]
[3]
  Affinity for PKC isoform βII: —
[4]
  Affinity for PKC isoform βI: M
[5]
  Affinity for PKC isoform ζ: M/L

## ILEDKGGDAQNLIGISI [PRE 8]
[3]
  Affinity for PKC isoform βII: H

## RRKKGGKDFVVKR [PRE 1]
[4]
  Affinity for PKC isoform βI: H
[5]
  Affinity for PKC isoform ζ: L
